The values that follow come from patent US20240425517A1, “NOVEL COMPOUND FOR DEGRADATION OF TARGET PROTEIN OR POLYPEPTIDE BY POLYUBIQUITINATION” (PRAZER THERAPEUTICS INC., priority 2021, published 2024).

The experiment has as its target T1, BRD4 proteins (Homo sapiens, UniProt O60885).
T1 construct: endogenous in cells; host or cells: MM.1S
Kind of experiment: Degradation of BRD4 protein in MM.1S cell lines (Western blot densitometry). In kind it is cell-based. As to conditions: MM.1S cells, 10 μM, 24 hours. As to the method:
To confirm that the compounds (BRD4 degraders) of Preparation Examples I′ to IV′ reduce the amount of BRD4 proteins, experiments were performed using MM.1S cell lines, which are B cells derived from the blood of multiple myeloma patients.
Specifically, the MM.1S cells were cultured in RPMI-1640 medium supplemented with 10% fetal bovine serum and Penicillin/Streptomycin (100 U/mL), transferred to a 6-well plate, and after 24 hours, the BRD4 degraders were diluted in the culture medium and the cells were treated with 10 μM each. After treatment, the cells were incubated in a C02 incubator for 24 hours. Through protein immunoblotting (Western Blot), the degrading capacity of each compound against BRD4 proteins in cells was confirmed. After cell culture was completed according to the experimental conditions, the cells were collected and centrifuged at 1,800 rpm for 3 minutes. The cells in the precipitate were lysed with RIPA (25 mM Tris-HCl pH 7.6, 150 mM NaCl, 1% NP-40, 1% sodium deoxycholate, 0.1% SDS, 1× Protease Inhibitor Cocktail), 5× sample buffer was added, and then heated at 100° C. for 15 minutes. The prepared sample was electrophoresed with sodium dodecyl sulfate poly acrylamide gel electrophoresis (SDS-PAGE), and then the proteins in the gel were transferred to a PVDF membrane using Trans-Blot Turbo. The membrane was treated with a 5% bovine serum albumin (BSA) solution and blocked at room temperature for 2 hours, and then BRD4 and R-actin antibodies were diluted in the 5% BSA solution to react with the membrane at 4° C. overnight. After washed with PBST (0.5% Tween20) 5 times, horse radish peroxidase (HRP)-conjugated secondary antibodies were diluted in PBST to react at room temperature for 2 hours, and then washed again with a PBST solution 5 times. After enzyme-substrate reaction was carried out using a HRP substrate, a signal was measured with chemi-doc equipment, and the densitometry of a band corresponding to the BRD4 protein detected in the Preparation Example Compounds was quantitatively analyzed. The case when the degrading capacity of each BRD4 degrader was reduced by less than 40% is indicated as +, the case when the degrading capacity was reduced by 40% to 70% (exclusive of 70) is indicated as ++, the case when the degrading capacity was reduced by 70% or more is indicated as +++ in Tables 16 to 19 below. As shown in the following Tables, it was confirmed that the compounds of Preparation Examples I′ to IV′ according to the present invention have excellent degrading capacity.
In general terms: In western blotting, separated proteins are transferred to a membrane and probed.
`COC(=O)c1ccc(N2CCN(C(=O)CCNC(=O)C[C@@H]3N=C(c4ccc(Cl)cc4)c4c(sc(C)c4C)-n4c(C)nnc43)CC2)cc1C#CCN.Cl` [5-32′, methyl (S)-2-(3-aminoprop-1-yn-1-yl)-4-(4-(3-(2-(4-(4-chlorophenyl)-2,3,9-trimethyl-6H-thieno[3,2-f][1,2,4]triazolo[4,3-a][1,4]diazepin-6-yl)acetamido)propanoyl)piperazin-1-yl)benzoate hydrochloride]: the “BRD4 degrading capacity (%)” value is reported as “+++ (the degrading capacity was reduced by 70% or more)”.
Take `COC(=O)c1ccc(NC(=O)CCCCCNC(=O)C[C@@H]2N=C(c3ccc(Cl)cc3)c3c(sc(C)c3C)-n3c(C)nnc32)cc1C#CCN.Cl` [5-6′, methyl (S)-2-(3-aminoprop-1-yn-1-yl)-4-(6-(2-(4-(4-chlorophenyl)-2,3,9-trimethyl-6H-thieno[3,2-f][1,2,4]triazolo[4,3-a][1,4]diazepin-6-yl)acetamido)hexanamido)benzoate hydrochloride]: the “BRD4 degrading capacity (%)” value is reported as “++ (the degrading capacity was reduced by 40% to 70% (exclusive of 70))”.
`Cc1sc2c(c1C)C(c1ccc(Cl)cc1)=N[C@@H](CC(=O)NCC#Cc1ccc(C#CCN)s1)c1nnc(C)n1-2.Cl` [4-10′, (S)—N-(3-(5-(3-aminoprop-1-yn-1-yl)thiophen-2-yl)prop-2-yn-1-yl)-2-(4-(4-chlorophenyl)-2,3,9-trimethyl-6H-thieno[3,2-f][1,2,4]triazolo[4,3-a][1,4]diazepin-6-yl)acetamide hydrochloride]: the “BRD4 degrading capacity (%)” value is “+++ (the degrading capacity was reduced by 70% or more)”.
Consider `COC(=O)c1ccc(NC(=O)CCCNC(=O)C[C@@H]2N=C(c3ccc(Cl)cc3)c3c(sc(C)c3C)-n3c(C)nnc32)cc1C#CCNC(C)=O` [5-148′, methyl (S)-2-(3-acetamidoprop-1-yn-1-yl)-4-(4-(2-(4-(4-chlorophenyl)-2,3,9-trimethyl-6H-thieno[3,2-f][1,2,4]triazolo[4,3-a][1,4]diazepin-6-yl)acetamido)butanamido)benzoate], for which the “BRD4 degrading capacity (%)” value is recorded as “+ (the degrading capacity of each BRD4 degrader was reduced by less than 40%)”.
For the compound `COC(=O)c1ccc(C#CCNC(=O)C2CCN(C(=O)C[C@@H]3N=C(c4ccc(Cl)cc4)c4c(sc(C)c4C)-n4c(C)nnc43)CC2)cc1C#CCN.Cl` [5-28′, methyl (S)-2-(3-aminoprop-1-yn-1-yl)-4-(3-(1-(2-(4-(4-chlorophenyl)-2,3,9-trimethyl-6H-thieno[3,2-f][1,2,4]triazolo[4,3-a][1,4]diazepin-6-yl)acetyl)piperidine-4-carboxamido)prop-1-yn-1-yl)benzoate hydrochloride], the “BRD4 degrading capacity (%)” value is “+++ (the degrading capacity was reduced by 70% or more)”.
In the case of `Cc1sc2c(c1C)C(c1ccc(Cl)cc1)=N[C@@H](CC(=O)NCCCCCCCCCNC(=O)c1ccc(C#CCN)o1)c1nnc(C)n1-2.Cl` [4-225′, (S)-5-(3-aminoprop-1-yn-1-yl)-N-(9-(2-(4-(4-chlorophenyl)-2,3,9-trimethyl-6H-thieno[3,2-f][1,2,4]triazolo[4,3-a][1,4]diazepin-6-yl)acetamido)nonyl)furan-2-carboxamide hydrochloride], the “BRD4 degrading capacity (%)” value is “+++ (the degrading capacity was reduced by 70% or more)”.
Turning to `Cc1sc2c(c1C)C(c1ccc(Cl)cc1)=N[C@@H](CC(=O)NCCCCCC(=O)Nc1ccc(C#CCN)cc1)c1nnc(C)n1-2.Cl` [4-165′, (S)—N-(4-(3-aminoprop-1-yn-1-yl)phenyl)-6-(2-(4-(4-chlorophenyl)-2,3,9-trimethyl-6H-thieno[3,2-f][1,2,4]triazolo[4,3-a][1,4]diazepin-6-yl)acetamido)hexanamide hydrochloride], the “BRD4 degrading capacity (%)” value is recorded as “+++ (the degrading capacity was reduced by 70% or more)”.
`COC(=O)c1ccc(N2CCN(C(=O)C[C@@H]3N=C(c4ccc(Cl)cc4)c4c(sc(C)c4C)-n4c(C)nnc43)CC2)cc1C#CCN.Cl` [5-7′, methyl (S)-2-(3-aminoprop-1-yn-1-yl)-4-(4-(2-(4-(4-chlorophenyl)-2,3,9-trimethyl-6H-thieno[3,2-f][1,2,4]triazolo[4,3-a][1,4]diazepin-6-yl)acetyl)piperazin-1-yl)benzoate hydrochloride]: the “BRD4 degrading capacity (%)” value is given as “+ (the degrading capacity of each BRD4 degrader was reduced by less than 40%)”.
As for `COC(=O)c1cc(C#CCN)cc(NC(=O)CCCNC(=O)C[C@@H]2N=C(c3ccc(Cl)cc3)c3c(sc(C)c3C)-n3c(C)nnc32)c1.Cl` [5-89′, methyl (S)-3-(3-aminoprop-1-yn-1-yl)-5-(4-(2-(4-(4-chlorophenyl)-2,3,9-trimethyl-6H-thieno[3,2-f][1,2,4]triazolo[4,3-a][1,4]diazepin-6-yl)acetamido)butanamido)benzoate hydrochloride], the “BRD4 degrading capacity (%)” value was “+ (the degrading capacity of each BRD4 degrader was reduced by less than 40%)”.
The value for `Cc1sc2c(c1C)C(c1ccc(Cl)cc1)=N[C@@H](CC(=O)NCCCC(=O)Nc1ccc(C(=O)OC(C)C)c(C#CCN)c1)c1nnc(C)n1-2.Cl` [5-2′, isopropyl (S)-2-(3-aminoprop-1-yn-1-yl)-4-(4-(2-(4-(4-chlorophenyl)-2,3,9-trimethyl-6H-thieno[3,2-f][1,2,4]triazolo[4,3-a][1,4]diazepin-6-yl)acetamido)butanamido)benzoate hydrochloride] was “++ (the degrading capacity was reduced by 40% to 70% (exclusive of 70))”; that for `Cc1sc2c(c1C)C(c1ccc(Cl)cc1)=N[C@@H](CC(=O)NCCCC(=O)Nc1ccc(C(F)(F)F)c(C#CCN)c1)c1nnc(C)n1-2.Cl` [5-75′, (S)—N-(3-(3-aminoprop-1-yn-1-yl)-4-(trifluoromethyl)phenyl)-4-(2-(4-(4-chlorophenyl)-2,3,9-trimethyl-6H-thieno[3,2-f][1,2,4]triazolo[4,3-a][1,4]diazepin-6-yl)acetamido)butanamide hydrochloride] was “+++ (the degrading capacity was reduced by 70% or more)”; that for `COC(=O)c1ccc(NC(=O)CCCCNC(=O)C[C@@H]2N=C(c3ccc(Cl)cc3)c3c(sc(C)c3C)-n3c(C)nnc32)cc1C#CCN.Cl` [5-5′, methyl (S)-2-(3-aminoprop-1-yn-1-yl)-4-(5-(2-(4-(4-chlorophenyl)-2,3,9-trimethyl-6H-thieno[3,2-f][1,2,4]triazolo[4,3-a][1,4]diazepin-6-yl)acetamido)pentanamido)benzoate hydrochloride] was “++ (the degrading capacity was reduced by 40% to 70% (exclusive of 70))”.
Then `Cc1sc2c(c1C)C(c1ccc(Cl)cc1)=N[C@@H](CC(=O)NCCCCCCCC(=O)Nc1cccc(C#CCN)c1)c1nnc(C)n1-2.Cl` [5-107′, (S)—N-(3-(3-aminoprop-1-yn-1-yl)phenyl)-8-(2-(4-(4-chlorophenyl)-2,3,9-trimethyl-6H-thieno[3,2-f][1,2,4]triazolo[4,3-a][1,4]diazepin-6-yl)acetamido)octanamide hydrochloride], with “++ (the degrading capacity was reduced by 40% to 70% (exclusive of 70))”; and `COC(=O)c1c(C)cc(NC(=O)CCCNC(=O)C[C@@H]2N=C(c3ccc(Cl)cc3)c3c(sc(C)c3C)-n3c(C)nnc32)cc1C#CCN.Cl` [5-78′, methyl (S)-2-(3-aminoprop-1-yn-1-yl)-4-(4-(2-(4-(4-chlorophenyl)-2,3,9-trimethyl-6H-thieno[3,2-f][1,2,4]triazolo[4,3-a][1,4]diazepin-6-yl)acetamido)butanamido)-6-methylbenzoate hydrochloride], with “+ (the degrading capacity of each BRD4 degrader was reduced by less than 40%)”; and `COC(=O)c1ccc(NC(=O)C2CCN(C(=O)C[C@@H]3N=C(c4ccc(Cl)cc4)c4c(sc(C)c4C)-n4c(C)nnc43)CC2)cc1C#CCNC(=O)OC(C)OC(=O)C(C)C` (stereo partly drawn) [5-157′, methyl 4-(1-(2-((S)-4-(4-chlorophenyl)-2,3,9-trimethyl-6H-thieno[3,2-f][1,2,4]triazolo[4,3-a][1,4]diazepin-6-yl)acetyl)piperidine-4-carboxamido)-2-(3-(((1-(isobutyryloxy)ethoxy)carbonyl)amino)prop-1-yn-1-yl)benzoate], with “+++ (the degrading capacity was reduced by 70% or more)”.
`COC(=O)c1ccc(N2CC3(CCN(C(=O)C[C@@H]4N=C(c5ccc(Cl)cc5)c5c(sc(C)c5C)-n5c(C)nnc54)CC3)C2)cc1C#CCN.Cl` [5-168′, methyl (S)-2-(3-aminoprop-1-yn-1-yl)-4-(7-(2-(4-(4-chlorophenyl)-2,3,9-trimethyl-6H-thieno[3,2-f][1,2,4]triazolo[4,3-a][1,4]diazepin-6-yl)acetyl)-2,7-diazaspiro[3.5]nonan-2-yl)benzoate hydrochloride]: the “BRD4 degrading capacity (%)” value is recorded as “+++ (the degrading capacity was reduced by 70% or more)”.
